Test results published in patent publication US8557764B2, “Methods of modulating immune function” (The Regents of the University of Colorado, a body corporate, priority 2007, dated 2013).
No end group written: not given here. *: point of attachment. Biotin = O=C1N[C@H]2[C@H](CS[C@H]2CCCCC(=O)*)N1

Legend:
[1] = relative to cyclosporin; cited from earlier work
[2] = test system: cell surface CD74 on Raji or Daudi cells; experiment: MKN1 (bioCLIP) effect on cell surface CD74 levels (flow cytometry); assay type: cell-based, human; settings: 24 and 48 hours
Protocol: (§1) The ability of MKN1 (bioCLIP) to alter cell surface CLIP and CD74 levels was determined using Raji or Daudi cells.
(§2) Data were analyzed by histogram with Y axis represents cell number of the 5000 live cells versus the X axis which is a reflection of relative FITC fluorescence with either antibodies to CLIP or CD74. The distance between the histogram from the isotype control staining versus the histogram reflecting the specific stain and is a measure of level of cell surface CLIP or CD74 when staining a population of live Raji or Daudi cells.
(§3) Cell Culture Conditions: The Raji and Daudi cell lines were purchased from American Type Culture Collection, were thawed, and grown in RPMI 1640 medium supplemented with standard supplements, including 10% fetal calf serum, gentamycin, penicillin, streptomycin, sodium pyruvate, HEPES buffer, 1-glutamine, and 2-ME.
(§4) Protocol: Cells were plated into a 12 well plate with 3 mls total volume containing approximately 0.5×10^6/mL for Daudi cells and 0.5×10^6/mL for Raji cells. […]
(§5) Harvested cells were stained using standard staining procedure that called for a 1:100 dilution of Fitc-anti-human CLIP or CD74 antibody (Fitc, Pharmingen, Cat #554647) or isotype control. […] Samples were acquired and analyzed on a Coulter Excel Flow Cytometer.

[3] = test system: cell surface CLIP on Raji or Daudi cells; experiment: MKN1 (bioCLIP) effect on cell surface CLIP levels (flow cytometry); assay type: cell-based, human; settings: 24 and 48 hours
Protocol: as §1, §2, §3, §4, §5

[4] = test system: cell surface CD1d on Raji and Daudi cells; experiment: Cell surface expression of CD1d after competing peptide treatment (flow cytometry); assay type: cell-based, human; settings: 50 microMolar, both cell lines
Protocol: (§6) The ability of synthetic peptides to compete with binding of CLIP peptides and result in the cell surface expression of CD1d was determined.
(§7) Results: The results shown in FIG. 5 are expressed in histogram analyses. The Y axis represents cell number of the 5000 live cells versus the X axis which is a reflection of relative Fitc fluorescence versus Streptavidin-PE (eBioscience, Cat. #12-4317) that will bind with high affinity to cell-bound biotinylated peptides. The distance between the histogram from the isotype control staining versus the histogram reflecting the specific stain and is a measure of level of cell surface CD1d.
as §3
(§8) Protocol: Cells were plated into a 12 well plate with 3 mls total volume containing approximately 1.5×10^6/well for Daudi cells and 3.0×10^6/well for Raji cells. Treatment groups included no treatment as control and biotinylated […] […]
(§9) Harvested cells were stained using standard staining procedure that called for a 1:100 dilution of PE anti-CD1d. […] Samples were acquired and analyzed on a Coulter Excel Flow Cytometer.

[5] = test system: human B cell lines, Raji and Daudi; experiment: Binding of biotinylated synthetic peptide to B cell lines (Streptavidin-PE flow cytometry); assay type: cell-based; settings: 50 microMolar
Protocol: as §6, §7, §3, §8, §9

Compound: C=CC[C@@H]1/C=C(\C)C[C@H](C)C[C@H](OC)[C@H]2O[C@@](O)(C(=O)C(=O)N3CCCC[C@H]3C(=O)O[C@H](/C(C)=C/[C@@H]3CC[C@@H](O)[C@H](OC)C3)[C@H](C)[C@@H](O)CC1=O)[C@H](C)C[C@@H]2OC [FK506, tacrolimus]
- immunosuppressive activity greater than cyclosporin [1]: 10-100 times

Compound: MKN1: 19 mer, Biotin at N-Terminal = Biotinylated CLIP; SGG GSK MRM ATP LLM QAL Y (SEQ ID NO. 5) (Biotin-SGGGSKMRMATPLLMQALY)
- cell surface CD74 levels [2]: alters
- cell surface CLIP levels [3]: alters

Compound: Biotinylated FRIMAVLAS: biotinylated synthetic peptide FRIMAVLAS (SEQ ID NO. 2), also referred to as MKN 5 (also: biotinylated)
- cell surface expression of CD1d ([4]; 4 hours): marginally
- cell surface expression of CD1d ([4]; 24 hours): slightly more
- binding of biotinylated peptide to the cell lines ([5]; 4 hours, Raji and Daudi): bound with high affinity
- binding of biotinylated peptide to the cell lines ([5]; 24 hours): Less binding
